Laboratory results taken from US20240116946A1 (Gilead Sciences, Inc., priority 2022, published 2024).
Like-named read-outs stand apart in the source and are kept apart here.

Experiments:
[1] = target: recombinant SARS-CoV-2 Main protease (Mpro) (Severe acute respiratory syndrome coronavirus 2 (2019-nCoV) (SARS-CoV-2), UniProt P0DTD1); assay: Cov Mpro Biochemical IC50 Assay; conditions: read-out: MPro IC50
SARS-CoV-2-NLuc = assay: microbe, parasite or virus in culture; type: cell-based, SARS Coronavirus 2
[2] = recombinant SARS-CoV-2 Mpro 7.5 nM, fluorogenic peptide substrate 40 μM
[3] = Severe acute respiratory syndrome coronavirus, 48 h, read-out: MPro EC50
[4] = recombinant SARS-CoV-2 Mpro, fluorogenic peptide substrate
[5] = Severe acute respiratory syndrome coronavirus, 48 h; read-out: MPro EC50

SMILES	IC50 [1, 2] [µM]	EC50 (SARS-CoV-2-NLuc; [3]) [µM]	IC50 [1, 4] [µM]	EC50 (SARS-CoV-2-NLuc; read-out: MPro EC50) [µM]	EC50 (SARS-CoV-2-NLuc; [5]) [µM]
COc1ccc(Cl)c(-c2cc3[nH]c(=O)n(-c4cncc5ccc(C(=O)N6CCOCC6)cc45)c(=O)c3s2)c1 [Example 566, 6-(2-chloro-5-methoxy-phenyl)-3-[6-(morpholine-4-carbonyl)-4-isoquinolyl]-1H-thieno[3,2-d]pyrimidine-2,4-dione]	0.00983	0.0208			
O=c1[nH]c2cc(-c3c(Cl)cccc3-c3ccc4c(c3)OCO4)ccc2c(=O)n1-c1cncc2ccccc12 [Example 356]		0.0522	0.13		
COc1cc(-c2cc3c(s2)c(=O)n(-c2cncc4cn[nH]c24)c(=O)n3CCC#N)c(Cl)cc1F [Example 1047]	0.00553	0.0124			
COc1ccc(Cl)c(-c2cc3[nH]c(=O)n(-c4cncc5c(Cl)cccc45)c(=O)c3s2)c1 [Example 595]	0.476	1.18			
COc1cc(-c2cc3[nH]c(=O)n(-c4cncc5ccccc45)c(=O)c3cc2F)c(C#N)cc1F (single isomer, unassigned) [Example 511, 5-fluoro-2-[6-fluoro-3-(4-isoquinolyl)-2,4-dioxo-1H-quinazolin-7-yl]-4-methoxy-benzonitrile]	0.913			0.604	
O=c1[nH]c2cc(-c3c(Cl)cccc3-c3ccccc3)ccc2c(=O)n1-c1cncc2ccccc12 [Example 103]		0.0834	0.388		
COc1cc(-c2cc3c(s2)c(=O)n(-c2cncc4ccsc24)c(=O)n3CC2(C#N)CC2)c(Cl)cc1F [Example 655]	0.0034	0.00331			
Cn1ncc2cncc(-n3c(=O)[nH]c4cc(-c5c(Cl)cc(Cl)c6c5CCO6)sc4c3=O)c21 [Example 656]	0.012				0.0239
COc1cnc(C#N)c(-c2ccc3c(=O)n(-c4cncc5ccccc45)c(=O)[nH]c3c2)c1 [Example 333]		0.765	0.149		
COc1cc(-c2cc3[nH]c(=O)n(-c4cncc5sc(C(N)=O)c(C)c45)c(=O)c3s2)c(Cl)cc1F [Example 1049]	0.00316	0.0409			
COc1cc(-c2cc3[nH]c(=O)n(-c4cncc5c(C#N)nn(C)c45)c(=O)c3s2)c(Cl)cc1F [Example 977]	0.0212	0.101			
O=c1[nH]c2cc(-c3ncco3)sc2c(=O)n1-c1cncc2ccccc12 [Example 166, 3-(isoquinolin-4-yl)-6-(oxazol-2-yl)thieno[3,2-d]pyrimidine-2,4(1H,3H)-dione]		4.42	0.942		
Cc1nn(CC(F)(F)F)cc1-c1cccc(Cl)c1-c1ccc2c(=O)n(-c3cncc4ccccc34)c(=O)[nH]c2c1 [Example 285]		0.0255	0.0192		
Cc1c(F)cncc1-n1c(=O)c2sc(-c3ccccc3Cl)cc2n(CCC#N)c1=O [Example 1023]	0.0193				0.0593
COc1cc(-c2cc3c(s2)c(=O)n(-c2cncc4c2c(C)nn4C)c(=O)n3CCC#N)c(Cl)cc1F [Example 925, 3-(6-(2-chloro-4-fluoro-5-methoxyphenyl)-3-(1,3-dimethyl-1H-pyrazolo[3,4-c]pyridin-4-yl)-2,4-dioxo-3,4-dihydrothieno[3,2-d]pyrimidin-1(2H)-yl)propanenitrile]	0.00613	0.00655			
COc1cncc(-n2c(=O)[nH]c3cc(-c4ccccc4Cl)sc3c2=O)c1 [Example 378]			0.304		0.359
COc1cc(-c2cc3c(s2)c(=O)n(-c2cncc4[nH]nc(C)c24)c(=O)n3CCC#N)c(Cl)cc1F (single isomer, unassigned) [Example 959, 3-(6-(2-chloro-4-fluoro-5-methoxyphenyl)-3-(3-methyl-1H-pyrazolo[3,4-c]pyridin-4-yl)-2,4-dioxo-3,4-dihydrothieno[3,2-d]pyrimidin-1(2H)-yl)propanenitrile]	0.00511			0.00586	
COc1cc(-c2cc3[nH]c(=O)n(-c4cncc5cnn(C)c45)c(=O)c3s2)c(Cl)cc1F (single isomer, unassigned) [Example 640, 6-(2-chloro-4-fluoro-5-methoxy-phenyl)-3-(1-methylpyrazolo[4,3-c]pyridin-7-yl)-1H-thieno[3,2-d]pyrimidine-2,4-dione]	< 0.00426			0.00348	
COc1cc(-c2cc3[nH]c(=O)n(-c4cncc5ccn(C)c45)c(=O)c3s2)c(Cl)cc1F [Example 454, 6-(2-chloro-4-fluoro-5-methoxyphenyl)-3-(1-methyl-1H-pyrrolo[3,2-c]pyridin-7-yl)thieno[3,2-d]pyrimidine-2,4(1H,3H)-dione]	0.0048	0.00389			
COc1cncc(-n2c(=O)c3sc(-c4cc(OC)c(F)cc4Cl)cc3n(CCC#N)c2=O)c1 [Example 870]	0.00289	0.00341			
COc1ccc(C#N)c(-c2cc3[nH]c(=O)n(-c4cncc5c(Cl)cccc45)c(=O)c3s2)c1 [Example 594]	0.883	0.929			
COc1ccc(Cl)c(-c2ccc3c(=O)n(-c4cncc5c4CCCO5)c(=O)[nH]c3c2)c1 [Example 597]	0.16	0.205			
Cc1noc(C)c1-c1cc2[nH]c(=O)n(-c3cncc4cnn(C)c34)c(=O)c2s1 [Example 805]	0.701				> 1

SMILES	IC50 [1, 2] [µM]	EC50 (SARS-CoV-2-NLuc; [3]) [µM]	IC50 [1, 4] [µM]	EC50 (SARS-CoV-2-NLuc; read-out: MPro EC50) [µM]	EC50 (SARS-CoV-2-NLuc; [5]) [µM]
COc1ccc2cncc(-n3c(=O)[nH]c4cc(-c5ccccc5Cl)sc4c3=O)c2n1 [Example 449, 6-(2-chlorophenyl)-3-(2-methoxy-1,6-naphthyridin-8-yl)thieno[3,2-d]pyrimidine-2,4(1H,3H)-dione]	0.014	0.0292			
COc1cc(-c2cc3[nH]c(=O)n(-c4cncc5c4OCCC5)c(=O)c3s2)c(Cl)cc1F [Example 1079]	0.0103	0.00956			
COc1cc(-c2cc3c(s2)c(=O)n(-c2cncc4ccsc24)c(=O)n3CC#N)c(Cl)cc1F [Example 653]	0.00258	0.00445			
COc1cc(-c2cc3c(s2)c(=O)n(-c2cncc4ccccc24)c(=O)n3Cc2ncn(C)n2)c(Cl)cc1F [Example 689]	0.032	0.03			
Cc1cc(Cl)c(-c2cc3[nH]c(=O)n(-c4cncc5ccccc45)c(=O)c3s2)cc1C#N [Example 548]	0.00755	0.114			
COc1cc(-c2cc3c(s2)c(=O)n(-c2cncc4cnn(C)c24)c(=O)n3CCN(C)C)c(Cl)cc1F [Example 1068]	0.0742	0.219			
O=c1[nH]c2cc(-c3ccccc3Cl)ccc2c(=O)n1-c1cnccc1C(F)(F)F [Example 125]		17.5	22.5		
Cc1c2c(-n3c(=O)c4sc(-c5ccc(F)cc5Cl)cc4n(CCC#N)c3=O)cncc2nn1C (single isomer, unassigned) [Example 971, 3-(6-(2-chloro-4-fluorophenyl)-3-(2,3-dimethyl-2H-pyrazolo[3,4-c]pyridin-4-yl)-2,4-dioxo-3,4-dihydrothieno[3,2-d]pyrimidin-1(2H)-yl)propanenitrile]	0.013			0.0558	
O=c1[nH]c2cc(-c3ccccc3)cnc2c(=O)n1-c1cncc2ccccc12 [Example 29]			0.476		4.51
COc1cc(-c2cc3c(s2)c(=O)n(-c2cncc(C)n2)c(=O)n3CCC#N)c(Cl)cc1F [Example 894]	0.0032	0.00655			
N#Cc1cc(F)ccc1-c1cc2[nH]c(=O)n(-c3cncc4ccccc34)c(=O)c2s1 [Example 534]	0.0306	0.0805			
COc1ccc(Cl)c(-c2cc3[nH]c(=O)n(-c4cncc(C5CC5)c4)c(=O)c3s2)c1 [Example 367]			0.0089		0.0211
COc1cc(-c2sc3c(=O)n(-c4cncc5ccccc45)c(=O)[nH]c3c2C)c(Cl)cc1F [Example 1016]	0.357				> 1
O=c1[nH]c2cc(-c3c(Cl)cccc3-c3ccc4c(c3)OCCO4)sc2c(=O)n1-c1cncc2ccccc12 [Example 354]		0.0128	0.0456		
COc1ccc(Cl)c(-c2cc3[nH]c(=O)n(-c4cncc5ccc(N6CCOCC6=O)cc45)c(=O)c3s2)c1 [Example 573, 6-(2-chloro-5-methoxyphenyl)-3-(6-(3-oxomorpholino)isoquinolin-4-yl)thieno[3,2-d]pyrimidine-2,4(1H,3H)-dione]	0.00326				0.0201
COc1ccc(C#N)c(-c2cc3[nH]c(=O)n(-c4cncc5ccc(F)cc45)c(=O)c3s2)c1 [Example 589]	0.00501	0.0237			
COc1cc(-c2cc3[nH]c(=O)n(-c4cncc5cccc(Cl)c45)c(=O)c3s2)c(Cl)cc1F [Example 1075]	0.0148			0.0117	
COc1cc(-c2cc3c(s2)c(=O)n(-c2cccnn2)c(=O)n3CCC#N)c(Cl)cc1F [Example 989]	0.00731	0.0196			
O=c1[nH]c2cc(-c3ccccc3Cl)ncc2c(=O)n1-c1cncc2ccccc12 [Example 163, 7-(2-chlorophenyl)-3-(4-isoquinolyl)-1H-pyrido[4,3-d]pyrimidine-2,4-dione]		0.932	0.489		
COc1ccc(Cl)c(-c2cnc3c(=O)n(-c4cncc5ccccc45)c(=O)[nH]c3c2)c1 [Example 219]			0.00506		0.181
COc1cc(-c2cc3c(s2)c(=O)n(-c2cncc4c(C)nn(C)c24)c(=O)n3CCC#N)c(Cl)cc1F [Example 979, 3-(6-(2-chloro-4-fluoro-5-methoxyphenyl)-3-(1,3-dimethyl-1H-pyrazolo[4,3-c]pyridin-7-yl)-2,4-dioxo-3,4-dihydrothieno[3,2-d]pyrimidin-1(2H)-yl)propanenitrile]	0.00371	0.00307			
N#CCCn1c(=O)n(-c2cccnc2)c(=O)c2sc(-c3ccccc3C#N)cc21 [Example 801]	0.0606				0.231
COc1cc(-c2cc3c(s2)c(=O)n(-c2cncc4cccc(Cl)c24)c(=O)n3CCC#N)c(Cl)cc1F [Example 921]	0.00142	0.00192			
